Results reported in patent US20170096629A1, “FILTRATION DEVICE AND SYSTEM” (Universite Technologie de Compiegne - UTC, priority 2009, published 2017).

Assay: diffusion coefficient of molecules through a filtration membrane, co-current filtration system, regression of analytic model
Assay type: physicochemical
Settings: least-squares regression of analytic model on concentration ratio versus time
Source text: Such systems may also be used for characterizing a filtration membrane 130. For example, it is possible to evaluate a diffusion coefficient of a molecule for a given membrane 130 from a physical model and measurements of concentration of the molecule in the first chamber 110 and/or the second chamber 120 versus time. The co-current system may be used for calibrating the model and estimating the diffiusion coefficient, and the countercurrent system may be used for checking the diffusion coefficient or vice versa.
In particular, the applicant modeled the time-dependent change of the concentration in the first chamber 110, in the case when a fluid to be filtered circulates in the second chamber 120, with the following equations: • in the case of a co-current flow (like in FIG. 9): […]
and • C1(t) represents the concentration in the first chamber 110 as a function of time t, • L represents the (common) length of the first and second chambers 110, 120, • b represents the (common) width of the first and second chambers 110, 120, • Qf represents the filtration flow rate, • V1 represents the volume of the first chamber 110, • V2 represents the volume of the second chamber 120, • C1o represents the initial concentration in the first chamber 110, • C1∞ represents the equilibrium concentration in the first chamber 110, • Dm represents the diffusion coefficient of the molecule to be filtered for the membrane 130, and • δ represents the thickness of the membrane.
By means of these models, it is possible to determine the values of the diffusion coefficient Dm of the molecules tested for a given membrane 130. For this, for example it is possible to operate in the co-current mode and measure the disappearance of the molecule in the second chamber 120 (and therefore its appearance in the first chamber 110).
In FIGS. 11 and 12 the change in the concentration-over-initial-concentration-in-the-second-chamber 120 ratio is illustrated versus time for given experimental conditions, for urea (FIG. 11) and vitamin B12 (FIG. 12) respectively, with several types of membrane. Moreover, the applicant has also determined this ratio for albumin (graph not shown).
The experimental results are illustrated, for an experiment with a membrane of high porosity (of the 8F type) by icons □, Δ, and for an experiment with a membrane of low porosity (of the 1 FPH type) by icons: *, ◯. A regression of the analytic model is then made for example with a minimization by least squares, in which it is possible to obtain experimentally the diffusion coefficients in (m^2/s) listed in the following table: […]

diffusion coefficient Dm (membrane 1 FPH (low porosity)) | diffusion coefficient Dm (membrane 8F (high porosity)) | Compound
2 × 10^−12 m^2/s | 2 × 10^−11 m^2/s | NC(N)=O [Urea, urea]
4 × 10^−13 m^2/s | 6 × 10^−12 m^2/s | vitamin B12

Compound | diffusion coefficient Dm (membrane 1 FPH (low porosity)) | diffusion coefficient Dm (membrane 8F (high porosity))
albumin | 9 × 10^−14 m^2/s | 2 × 10^−13 m^2/s
